Columns and labels:
[1] = biological target: Tyrosine-protein kinase ABL1 (Homo sapiens, UniProt P00519); assay: Inhibition of recombinant full length human His-tagged ABL1 expressed in baculovirus infected insect cells using tyr 02 as substrate incubated for 2 hr by Z'-Lyte assay
[2] = biological target: BDNF/NT-3 growth factors receptor (Homo sapiens, UniProt Q16620); assay: Inhibition of recombinant human His-tagged TrkB catalytic domain (526 to 838 residues) expressed in baculovirus expression system using tyr 01 as substrate incubated for 1 hr by Z'-Lyte assay
[3] = biological target: High affinity nerve growth factor receptor (Homo sapiens, UniProt P04629); assay: Inhibition of recombinant human His-tagged TrkA catalytic domain (441 to 796 residues) expressed in baculovirus expression system using tyr 01 as substrate incubated for 1 hr by Z'-Lyte assay
High affinity nerve growth factor receptor, sequence (P04629 whole entry, the tested form may be a part): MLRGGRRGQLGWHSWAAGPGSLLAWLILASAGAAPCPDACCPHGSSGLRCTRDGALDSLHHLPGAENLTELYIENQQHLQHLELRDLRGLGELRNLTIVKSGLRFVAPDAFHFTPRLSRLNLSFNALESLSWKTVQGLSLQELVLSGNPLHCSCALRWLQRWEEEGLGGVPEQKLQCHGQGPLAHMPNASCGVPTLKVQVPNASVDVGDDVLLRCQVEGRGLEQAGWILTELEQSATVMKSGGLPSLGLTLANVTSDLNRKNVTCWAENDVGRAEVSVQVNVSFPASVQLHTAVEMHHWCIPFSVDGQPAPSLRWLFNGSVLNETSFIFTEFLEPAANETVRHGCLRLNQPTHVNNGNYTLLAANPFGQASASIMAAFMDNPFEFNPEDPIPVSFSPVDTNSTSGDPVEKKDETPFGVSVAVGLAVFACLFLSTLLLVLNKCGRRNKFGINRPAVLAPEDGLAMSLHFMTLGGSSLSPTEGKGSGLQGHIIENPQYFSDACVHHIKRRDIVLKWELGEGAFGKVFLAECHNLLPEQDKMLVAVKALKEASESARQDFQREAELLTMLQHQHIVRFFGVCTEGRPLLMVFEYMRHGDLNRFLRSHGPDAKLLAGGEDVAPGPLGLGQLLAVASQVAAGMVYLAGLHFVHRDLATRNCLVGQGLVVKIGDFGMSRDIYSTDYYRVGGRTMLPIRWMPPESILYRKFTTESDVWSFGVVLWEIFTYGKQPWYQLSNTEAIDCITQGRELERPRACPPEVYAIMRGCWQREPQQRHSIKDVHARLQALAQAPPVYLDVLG

BDNF/NT-3 growth factors receptor, sequence (Q16620 whole entry, the tested form may be a part): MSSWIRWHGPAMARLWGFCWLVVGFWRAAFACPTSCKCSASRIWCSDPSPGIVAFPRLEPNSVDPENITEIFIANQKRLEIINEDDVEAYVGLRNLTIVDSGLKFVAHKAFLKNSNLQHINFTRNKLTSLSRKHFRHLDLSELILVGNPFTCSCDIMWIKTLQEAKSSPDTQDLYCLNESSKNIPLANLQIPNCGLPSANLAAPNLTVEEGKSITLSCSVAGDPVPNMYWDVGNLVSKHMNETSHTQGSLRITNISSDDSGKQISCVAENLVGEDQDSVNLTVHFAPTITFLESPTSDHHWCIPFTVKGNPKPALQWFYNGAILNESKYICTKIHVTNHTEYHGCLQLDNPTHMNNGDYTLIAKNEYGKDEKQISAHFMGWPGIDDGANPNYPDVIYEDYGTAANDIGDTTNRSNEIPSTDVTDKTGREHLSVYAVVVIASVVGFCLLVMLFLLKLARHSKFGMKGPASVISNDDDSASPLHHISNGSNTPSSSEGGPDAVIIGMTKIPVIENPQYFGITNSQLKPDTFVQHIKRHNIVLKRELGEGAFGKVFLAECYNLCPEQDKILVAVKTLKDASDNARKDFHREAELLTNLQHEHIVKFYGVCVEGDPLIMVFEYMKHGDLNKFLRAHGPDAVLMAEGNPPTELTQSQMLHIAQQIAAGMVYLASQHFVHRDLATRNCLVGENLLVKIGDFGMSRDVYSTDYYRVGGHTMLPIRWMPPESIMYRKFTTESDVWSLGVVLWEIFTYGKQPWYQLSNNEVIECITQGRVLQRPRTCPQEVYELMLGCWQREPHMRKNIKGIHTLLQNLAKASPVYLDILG
Tyrosine-protein kinase ABL1, sequence (P00519 whole entry, the tested form may be a part): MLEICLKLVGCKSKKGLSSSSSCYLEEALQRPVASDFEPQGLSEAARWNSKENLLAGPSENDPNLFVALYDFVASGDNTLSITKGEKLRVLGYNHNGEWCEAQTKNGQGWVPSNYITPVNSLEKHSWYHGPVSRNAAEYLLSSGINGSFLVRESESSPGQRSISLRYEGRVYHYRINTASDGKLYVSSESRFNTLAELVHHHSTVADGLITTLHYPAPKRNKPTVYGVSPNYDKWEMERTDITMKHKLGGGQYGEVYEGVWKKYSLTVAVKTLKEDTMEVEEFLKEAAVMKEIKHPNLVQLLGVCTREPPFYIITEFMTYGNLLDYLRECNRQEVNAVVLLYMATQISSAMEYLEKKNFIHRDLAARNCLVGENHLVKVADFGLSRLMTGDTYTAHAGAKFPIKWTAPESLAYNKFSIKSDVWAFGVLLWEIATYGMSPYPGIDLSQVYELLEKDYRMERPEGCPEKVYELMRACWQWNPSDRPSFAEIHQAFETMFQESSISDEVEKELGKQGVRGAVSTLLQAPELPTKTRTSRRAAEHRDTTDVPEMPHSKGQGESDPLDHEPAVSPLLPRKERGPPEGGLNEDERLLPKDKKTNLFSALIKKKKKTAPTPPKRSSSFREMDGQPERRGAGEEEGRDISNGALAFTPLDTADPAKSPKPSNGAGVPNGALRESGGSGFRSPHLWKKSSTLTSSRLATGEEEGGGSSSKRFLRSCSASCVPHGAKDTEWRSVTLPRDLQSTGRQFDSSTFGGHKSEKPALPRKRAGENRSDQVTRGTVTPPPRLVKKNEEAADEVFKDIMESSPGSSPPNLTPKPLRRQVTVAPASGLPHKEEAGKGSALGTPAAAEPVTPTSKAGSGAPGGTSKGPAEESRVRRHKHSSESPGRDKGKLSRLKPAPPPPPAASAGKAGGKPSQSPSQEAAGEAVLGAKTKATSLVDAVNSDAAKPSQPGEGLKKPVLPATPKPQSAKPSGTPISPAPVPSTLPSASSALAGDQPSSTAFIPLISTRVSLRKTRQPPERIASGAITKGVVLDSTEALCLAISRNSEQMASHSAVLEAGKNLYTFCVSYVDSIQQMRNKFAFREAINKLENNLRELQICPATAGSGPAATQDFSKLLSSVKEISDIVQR

Row | Compound | IC50 [1] | IC50 [2] | IC50 [3]
1 | Cc1c(C#Cc2cnc3cnc(-c4ccncc4)cn23)cccc1C(=O)Nc1cc(CN2CCN(C)CC2)cc(C(F)(F)F)c1 | > 1000 nM | 43.5 nM | 28.8 nM
2 | CN1CCN(Cc2cc(NC(=O)c3cccc(C#Cc4cnc5cnccn45)c3Cl)cc(C(F)(F)F)c2)CC1 | > 1000 nM | 254 nM | 227 nM
3 | Cc1c(C#Cc2cnc3cnc(-c4ccc(N)cc4)cn23)cccc1C(=O)Nc1cc(CN2CCN(C)CC2)cc(-c2ccccc2)c1 | > 1000 nM | 24.2 nM | 7.34 nM
4 | Cc1c(C#Cc2cnc3cnccn23)cccc1C(=O)Nc1cc(CN2CCN(C)CC2)cc(C(F)(F)F)c1 | > 1000 nM | 38.3 nM | 39.8 nM
5 | COc1c(C#Cc2cnc3cnccn23)cccc1C(=O)Nc1cc(CN2CCN(C)CC2)cc(C(F)(F)F)c1 | > 1000 nM | > 1000 nM | > 1000 nM
6 | Cc1ccc(C#Cc2cnc3cnccn23)cc1C(=O)Nc1cc(CN2CCN(C)CC2)cc(C(F)(F)F)c1 | > 1000 nM | > 1000 nM | > 1000 nM
7 | CN1CCN(Cc2cc(NC(=O)c3cccc(C#Cc4cnc5cnccn45)c3)cc(C(F)(F)F)c2)CC1 | 33.3 nM | 43.9 nM | 41.6 nM
8 | Cc1cc(CN2CCN(C)CC2)cc(NC(=O)c2cccc(C#Cc3cnc4cnc(-c5ccc(N)cc5)cn34)c2C)c1 | > 1000 nM | 41.3 nM | 17.4 nM
9 | CCc1cc(CN2CCN(C)CC2)cc(NC(=O)c2cccc(C#Cc3cnc4cnc(-c5ccc(N)cc5)cn34)c2C)c1 | > 1000 nM | 9.3 nM | 3.56 nM
10 | CCc1c(C#Cc2cnc3cnccn23)cccc1C(=O)Nc1cc(CN2CCN(C)CC2)cc(C(F)(F)F)c1 | > 1000 nM | 315 nM | 186 nM

Source: ChEMBL document CHEMBL4351015, “Design, synthesis and biological evaluation of 3-(imidazo[1,2-a]pyrazin-3-ylethynyl)-2-methylbenzamides as potent and selective pan-tropomyosin receptor kinase (TRK) inhibitors” (Eur J Med Chem, 2019)
